The text below walks through data of patent publication US20220168384A1, “Anti-Bacterial Combination Therapy” (McMaster University, priority 2019, published 2022).

Like-named read-outs stand apart in the source and are kept apart here.

Data set [1] can be described thus: Qualitative assay for antibiotic-Fe3+ coloured complexes. Format: physicochemical. To be noted: stock antibiotic + FeCl3 final 10 μM; room temperature 1 h. The method, then: […]. Binding of iron by a compound causes spectral shifts that can detected visually. Five μL of stock concentration antibiotic was added to 5 μL of FeCl3 to a final FeCl3 concentration of 10 μM and incubated at room temperature for one hour. Negative controls without iron are indicated by a negative sign and droplets with FeCl3 are indicated with a positive sign; vehicle controls with Milli-Q H2O and DMSO were included.
Compounds were arrayed in Nunc 96 microwell plates. Vehicle controls contained Milli-Q H2O with 1:75 dilution of each compound at a final concentration of […]. The experimental set-up contained the same components as the vehicle control, with the addition of […] FeCl3. The final volume in each well was 150 μL. The plate was incubated at room temperature for one hour and absorption spectra from 300 nm to 700 nm was read in 2 nm increments (Multiskan Go—Thermo Fisher Scientific). […]

A short description of data set [2]: UV-Vis absorption spectra assay for iron chelation. Format: physicochemical. Particulars: 300 μM compound and FeCl3; 300-700 nm; 1 h. The procedure:
Equimolar concentrations of compound and FeCl3 were added in deionized H2O to a final concentration of 300 μM and a spectrum of wavelengths from 300 nm to 700 nm read after 1 h incubation at room temperature. The black dashed line is the spectrum of the compound in the absence of iron. The black solid line is the spectrum after the addition of iron. […] Chloramphenicol and ampicillin were used as negative controls. Each assay was performed at least 3 times and averaged values are shown.
Compounds were arrayed in Nunc 96 microwell plates. Vehicle controls contained Milli-Q H2O with 1:75 dilution of each compound at a final concentration of […]. The experimental set-up contained the same components as the vehicle control, with the addition of […] FeCl3. The final volume in each well was 150 μL. The plate was incubated at room temperature for one hour and absorption spectra from 300 nm to 700 nm was read in 2 nm increments (Multiskan Go—Thermo Fisher Scientific).

Data set [3] has as its system P. aeruginosa PA14. The experiment in a line: Dose response and checkerboard assays against PA14. In kind it is cell-based, Pseudomonas aeruginosa. Particulars: for synergy with DSX: checkerboard of DSX with antibiotic. The method, then: Checkerboard assays were set-up using Nunc 96-well plates in an 8-well by 8-well format. Two columns were allocated for vehicle controls and two columns for sterility controls. Vehicle controls contained 2 μL DMSO plus 2 μL DFP solvent for checkerboards with TS and DFP or 4 μL DMSO for TS and DSX, in 146 μL of 10:90 medium or 10% serum inoculated with PA14 or PAO1-KP as described in Growth Curves. Sterile controls contained the same components in 10:90 medium or 10% serum, without cells. Serial dilutions of TS—with 17 μg/mL being the highest final concentration—were added along the y axis of the checkerboard (increasing concentration from bottom to top) whereas serial dilutions of DFP or DSX—with 512 μg/mL being the highest final concentration—were added along the x axis (increasing concentration from left to right). The final volume of each well was 150 μL and each checkerboard was repeated at least three times. Plates were incubated and the final OD600 determined as detailed above.
Culture conditions, growth assays, dose response and checkerboard assays using P. aeruginosa PA14 were performed as described in Example 1. Briefly, overnight cultures were grown in LB for 16 h, 37° C., 200 rpm then subcultured (1:500 dilution) into 10:90 for 6 h. Subcultures were standardized to OD600 of 0.10 and diluted 1:500 in fresh 10:90 before use. For the dose response assay, serial dilutions of compounds were added at 75 times the final concentration and diluted with 10:90 with cells to reach the desired final concentration. This was done in triplicate for technical replicates. Vehicle and sterile controls were included. The checkerboard assay was done similarly to the dose response assay but in an 8×8 format in a 96-well Nunc plate, with concentration of one drug increasing along the y-axis and the other along the x-axis. Sterility and vehicle controls were included with two columns allocated for each control. At least three biological replicates were repeated for the dose response and checkerboard assays.

The subject of data set [4] is P. aeruginosa PA14. Briefly: Thiopeptide + DSX checkerboard and dose-response assays. Format: cell-based, Pseudomonas aeruginosa. Particulars: thiopeptide + DSX checkerboard, 10:90. The procedure:
Culture conditions, checkerboard assays using P. aeruginosa PA14 and dose-response assays were performed as described in Example 1. In addition to TS, other thiopeptides tested were siomycin A (SM), thiocillin I (TC), micrococcin P1 (MC), nosiheptide (NH), berninamycin A (BER), and geninthiocin A (GEN). For dose response assays of the combinations conducted in 10:90, DSX concentration was constant at 64 μg/mL.

Setting [5] is: checkerboard, IC50 isobolograms, PA14, 10:90.

In the case of `CCn1cc(C(=O)O)c(=O)c2cnc(N3CCNCC3)nc21` [Pipemidic acid], the “colour change upon addition of FeCl3” value in data set [1] is “formed orange complexes”. In data set [2], the “absorption spectrum after addition of FeCl3” value is given as “shifted”.
Regarding `C[C@H]1c2cccc(O)c2C(=O)C2=C(O)[C@]3(O)C(=O)C(C(N)=O)=C(O)[C@@H](N(C)C)[C@@H]3[C@@H](O)[C@@H]21` [DOXY, Doxycycline], the one-eighth of MIC against PA14 (test concentration) in data set [3] (Pseudomonas aeruginosa, PA14, concentration used in clinical isolate testing, read-out: ⅛^th the MIC of PA14) worked out at 1 µg/mL.
With micrococcin P1 [MP], the “synergy with DSX” value in data set [4] is listed as “synergize”.
As to `O=P([O-])([O-])O[C@H]1[C@H](OP(=O)([O-])O)[C@H](OP(=O)([O-])[O-])[C@H](OP(=O)([O-])O)[C@@H](OP(=O)([O-])[O-])[C@@H]1OP(=O)([O-])O.[Na+].[Na+].[Na+].[Na+].[Na+].[Na+].[Na+].[Na+].[Na+]` [sodium phytate, Sodium phytate], the “synergy with TS” value in data set [3] is “None”.
On to `CO/N=C(\C(=O)N[C@@H]1C(=O)N2C(C(=O)O)=C(CSc3nc(=O)c(=O)[nH]n3C)CS[C@H]12)c1csc(N)n1` [Ceftriaxone, ceftriaxone], for which the “colour change upon addition of FeCl3” value in data set [1] is given as “turned red”. Besides, the “absorption spectrum after addition of FeCl3” value in data set [2] is on record as “did not change”.
As to `COc1cc(Cc2cnc(N)nc2N)cc(OC)c1OC` [Trimethoprim], the “colour change upon addition of FeCl3” value in data set [1] is listed as “turned golden-yellow”.
Turning to `C=C(NC(=O)C(=C)NC(=O)c1ccc2c(n1)-c1coc(n1)C(=C)NC(=O)C(=C)NC(=O)c1nc(oc1C)C(=C)NC(=O)[C@H](C(C)(C)O)NC(=O)C(=C)NC(=O)c1nc(oc1C)/C(=C/C)NC(=O)[C@H]([C@@H](C)O)NC(=O)c1csc-2n1)C(N)=O` [BER, berninamycin A], the “synergy with DSX” value in data set [4] is “did not synergize”.
On the same count and under the same terms, the entry for `C/C=C(\NC(=O)c1csc(-c2csc(-c3ccc4c(n3)-c3csc(n3)[C@H]([C@@H](C)O)NC(=O)c3csc(n3)[C@H](C(C)(C)O)NC(=O)c3csc(n3)/C(=C/C)NC(=O)[C@H]([C@@H](C)O)NC(=O)c3csc-4n3)n2)n1)C(=O)NC[C@@H](C)O` [TC, thiocillin I] is “synergize”.
For the compound `O=C(N[C@H](CO)[C@H](O)c1ccc([N+](=O)[O-])cc1)C(Cl)Cl` [Chloramphenicol], the “synergy with DSX” value in data set [3] (PA14) is reported as “No synergy”.
Turning to `O=C(O[C@@H]1Cc2c(O)cc(O)cc2O[C@@H]1c1cc(O)c(O)c(O)c1)c1cc(O)c(O)c(O)c1` [epigallocatechin gallate, Epigallocatechin Gallate], in data set [3] (setting [5]), the “synergy with TS” value is “None”.
The same measure, in the same setting: the entry for `COc1cc(/C=C/C(=O)O)ccc1O` [ferulic acid, Ferulic Acid] is “None”.
Regarding `O=C(O)c1cn(C2CC2)c2cc(N3CCNCC3)c(F)cc2c1=O` [CIP, ciprofloxacin], the “colour change upon addition of FeCl3” value in data set [1] was “formed orange complexes”. Moreover, the “synergy with DSX” value in data set [3] (PA14) is recorded as “No synergy”.
For geninthiocin A, the “synergy with DSX” value in data set [4] was “did not synergize”.
Take `NC[C@H]1O[C@H](O[C@H]2[C@H](O)[C@@H](O[C@H]3O[C@H](CO)[C@@H](O)[C@H](N)[C@H]3O)[C@H](N)C[C@@H]2N)[C@H](N)C[C@@H]1O` [tobramycin]: the “synergy with DSX” value in data set [3] (PA14) is “No synergy”.
Take `O=C(CCc1ccc(O)cc1)c1c(O)cc(O)cc1O` [phloretin, Phloretin]: the “synergy with TS” value in data set [3] (setting [5]) is recorded as “None”.
Still for that read-out and setting: the result for `Cc1nc(C)c(C)nc1C` [2,3,5,6-tetrametylpyrazine, 2,3,5,6-Tetramethylpyrazine] reads “None”; that for `O=C(O)[C@H]1O[C@@H](Oc2cc3oc(-c4ccccc4)cc(=O)c3c(O)c2O)[C@H](O)[C@@H](O)[C@@H]1O` [baicalin, Baicalin], “None”.
Same read-out and setting: the entry for `COc1cc(/C=C/C(=O)CC(=O)/C=C/c2ccc(O)c(OC)c2)ccc1O` [Curcumin] is “None”.
Regarding `C=C(NC(=O)C(=C)NC(=O)c1csc(C2=N[C@@H]3c4csc(n4)[C@H]4NC(=O)c5csc(n5)[C@H]([C@](C)(O)[C@@H](C)O)NC(=O)[C@H]5CSC(=N5)/C(=C/C)NC(=O)[C@H]([C@@H](C)O)NC(=O)c5csc(n5)[C@]3(CC2)NC(=O)[C@H](C)NC(=O)C(=C)NC(=O)C(=C)NC(=O)[C@H](C(C)C)N[C@@H]2C=Cc3c([C@H](C)O)cc(nc3[C@H]2O)C(=O)O[C@@H]4C)n1)C(N)=O` [SM, siomycin A], in data set [4], the “synergy with DSX” value is recorded as “synergize”.
Same read-out and setting: the entry for `C=C(NC(=O)c1csc(-c2nc3c(cc2O)-c2nc(cs2)C(=O)NC(C(C)O)C(=O)N/C(=C\C)c2nc(cs2)C(=O)NC2CC(O)C(=O)OCc4cccc5[nH]c(c(C)c45)C(=O)SCC(NC(=O)c4csc2n4)c2nc-3cs2)n1)C(N)=O` (stereo not shown) [NH, nosiheptide] is “synergize”.
With `O=[N+]([O-])[O-].O=[N+]([O-])[O-].O=[N+]([O-])[O-].[Ga+3]` [GN, Gallium Nitrate], in data set [3], the “relative potency of synergy with TS” value is on record as “weakest” and the “synergy with TS” value is reported as “synergized”.
